System: IL-1β release upon NLRP3 activation in peripheral blood mononuclear cells (PBMC)
Assay: PBMC IC50 determination assay: inhibition of IL-1β release upon NLRP3 activation
Assay type: cell-based
Details: PBMC, PBMC primed with LPS 3 h, compound 30 min, stimulated with ATP (5 mM) or nigericin (10 μM) 1 h; IL-1β by ELISA (Protocol A) or HTRF (Protocol B)
Method: PBMC IC50 determination assay. The compounds of the present disclosure were tested for their inhibitory activity against IL-1β release upon NLRP3 activation in peripheral blood mononuclear cells (PBMC).
Protocol A. PBMC were isolated from buffy coats by density gradient centrifugation on Histopaque-1077 (Sigma, cat no. 10771). Isolated cells were seeded into the wells of a 96-well plate and incubated for 3 h with lipopolysaccharide (LPS). Following medium exchange, the compounds of the present disclosure were added (a single compound per well) and the cells were incubated for 30 min. Next, the cells were stimulated either with ATP (5 mM) or nigericin (10 μM) for 1 h and the cell culture media from the wells were collected for further analysis.
The release of IL-1β into the media was determined by a quantitative detection of IL-1β in the media using an IL-1β enzyme-linked immunosorbent assay (ELISA) Ready-SET-Go!, eBioscience cat. No. 88-7261-88. Briefly, in a first step, high affinity binding plates (Corning, Costar 9018 or NUNC Maxisorp Cat No. 44-2404) were coated overnight at 4° C. with specific capture antibody included in the kit (anti-human IL-1β ref. 14-7018-68). Subsequently, plates were blocked with blocking buffer for 1 h at room temperature (rt) and after washing with a buffer (PBS with 0.05% Tween-20) incubated with protein standard and culture media. After 2 h of incubation at rt, plates were washed and incubated with biotinylated detection antibody included in the kit (anti-human IL-1β Biotin ref 33-7110-68) for 1 h at rt. Plates were washed and incubated with HRP-streptavidin for 30 min at rt and washed again. The signal was developed after addition of 3,3′,5,5′-tetramethylbenzidine-peroxidase (TMB) until colour appeared and the reaction was stopped by 2 M H2SO4. A microplate spectrophotometer (BioTek) was used to detect signals with 450 nm. The detection range of IL-1β ELISA was […].
Protocol B. PBMC were isolated from buffy coats by density gradient centrifugation on Histopaque-1077 (Sigma, cat no. 10771). Isolated cells were seeded into the wells (280,000 cells/well) of a 96-well plate and incubated for 3 h with lipopolysaccharide (LPS, 1 μg/mL diluted 1000× from a 1 mg/mL stock solution). The compounds of the present disclosure were added (a single compound per well) and the cells were incubated for 30 min. Next, the cells were stimulated with ATP (5 mM final concentration diluted 20× from a 100 mM stock solution) for 1 h and the cell culture media from the wells were collected for further analysis.
The release of IL-1β into the media was determined by quantitative detection of IL-1β in the media using HTRF®, CisBio cat. No. 62HIL1BPEH. Briefly, cell culture supernatant were dispensed directly into the assay plate containing antibodies labelled with the HTRF® donor and acceptor. A microplate spectrophotometer (BMG) was used to detect signals at 655 nm and 620 nm. The detection range of IL-1β HTRF® was 39-6500 μg/mL.

| SMILES | IC50 [nM] |
| --- | --- |
| C=C(C)c1nn(CC(=O)N[C@@H]2CCCN(C3CC3)C2)c(=O)c2ncn(C)c12 [Compound 13, N-[(3R)-1-Cyclopropyl-3-piperidyl]-2-(7-isopropenyl-1-methyl-4-oxo-imidazo[4,5-d]pyridazin-5-yl)acetamide] | 10000 to 50000 |
| Cc1nn(CC(=O)N[C@H]2C[C@@](C)(O)C2)c(=O)c2cc(C3CC3)oc12 [Compound 85, 2-{2-Cyclopropyl-7-methyl-4-oxo-4H,5H-furo[2,3-d]pyridazin-5-yl}-N-[cis-3-hydroxy-3-methylcyclobutyl]acetamide] | 1000 to 3000 |
| CCOC(=O)c1cnc(NC(=O)Cn2nc(C(C)C)c3oc(C4CC4)cc3c2=O)nc1 [Compound 80, Ethyl 2-(2-(2-cyclopropyl-7-isopropyl-4-oxofuro[2,3-d]pyridazin-5(4H)-yl)acetamido)pyrimidine-5-carboxylate] | 100 to 1000 |
| CC(C)c1nn(CC(=O)Nc2ncco2)c(=O)c2sc(C3CC3)cc12 [Compound 76, 2-(2-Cyclopropyl-4-isopropyl-7-oxothieno[2,3-d]pyridazin-6(7H)-yl)-N-(oxazol-2-yl)acetamide] | 100 to 1000 |
| CC(C)c1nn(CC(=O)NC2CC3(COC3)C2)c(=O)c2ccc(C3CC3)nc12 [Compound 25, 2-(2-Cyclopropyl-8-isopropyl-5-oxo-pyrido[2,3-d]pyridazin-6-yl)-N-(2-oxaspiro[3.3]heptan-6-yl)acetamide] | 1000 to 3000 |
| CC(C)c1nn(CC(=O)NC2CC3(COC3)C2)c(=O)c2cnc(C3CC3)cc12 [Compound 18, 2-(7-Cyclopropyl-1-isopropyl-4-oxo-pyrido[3,4-d]pyridazin-3-yl)-N-(2-oxaspiro[3.3]heptan-6-yl)acetamide] | 10000 to 50000 |
| CCc1cc2c(=O)n(CC(=O)Nc3ncc(F)cn3)nc(C(C)C)c2s1 [Compound 12, 2-(2-Ethyl-7-isopropyl-4-oxo-thieno[2,3-d]pyridazin-5-yl)-N-(5-fluoropyrimidin-2-yl)acetamide] | 100 to 1000 |
| CC(C)c1nn(CC(=O)N[C@H]2C[C@@](C)(O)C2)c(=O)c2cn(C(C)C)nc12 [Compound 68, 2-(2,7-Diisopropyl-4-oxo-2,4-dihydro-5H-pyrazolo[3,4-d]pyridazin-5-yl)-N-((cis)-3-hydroxy-3-methylcyclobutyl)acetamide] | 1000 to 3000 |
| CCOC(=O)c1cnc(NC(=O)Cn2nc(C)c3oc(C4CC4)cc3c2=O)nc1 [Compound 90, Ethyl 2-(2-{2-cyclopropyl-7-methyl-4-oxo-4H,5H-furo[2,3-d]pyridazin-5-yl}acetamido)pyrimidine-5-carboxylate] | 100 to 1000 |
| CCc1cc2c(=O)n(CC(=O)Nc3ncc(F)cn3)nc(C(C)C)c2o1 [Compound 23, 2-(2-Ethyl-7-isopropyl-4-oxo-furo [2,3-d]pyridazin-5-yl)-N-(5-fluoropyrimidin-2-yl) acetamide] | 100 to 1000 |
| CC(C)c1nn(CC(=O)Nc2ncc(F)cn2)c(=O)c2ccc(C3CC3)nc12 [Compound 28, 2-(2-Cyclopropyl-8-isopropyl-5-oxo-pyrido[2,3-d]pyridazin-6-yl)-N-(5-fluoropyrimidin-2-yl)acetamide] | 100 to 1000 |
| CCNc1cc2c(=O)n(CC(=O)Nc3ncccn3)nc(C(C)C)c2o1 [Compound 102, 2-[2-(Ethylamino)-4-oxo-7-(propan-2-yl)-4H,5H-furo[2,3-d]pyridazin-5-yl]-N-(pyrimidin-2-yl)acetamide] | 100 to 1000 |
| CCc1cc2c(=O)n(CC(=O)Nc3ncccn3)nc(CC)c2o1 [Compound 54, 2-(2,7-Diethyl-4-oxofuro[2,3-d]pyridazin-5(4H)-yl)-N-(pyrimidin-2-yl)acetamide] | 100 to 1000 |
| Cc1nn(CC(=O)Nc2ccc3nncn3n2)c(=O)c2cc(C3CC3)oc12 [Compound 106, 2-{2-Cyclopropyl-7-methyl-4-oxo-4H,5H-furo[2,3-d]pyridazin-5-yl}-N-{[1,2,4]triazolo[4,3-b]pyridazin-6-yl}acetamide] | 100 to 1000 |
| Cc1nn(CC(=O)Nc2ncc(Cl)cn2)c(=O)c2cc(C3CC3)oc12 [Compound 84, N-(5-Chloropyrimidin-2-yl)-2-{2-cyclopropyl-7-methyl-4-oxo-4H,5H-furo[2,3-d]pyridazin-5-yl}acetamide] | 100 to 1000 |
| CC(C)c1nn(CC(=O)Nc2ccc3nncn3n2)c(=O)c2cc(C3CC3)oc12 [Compound 105, 2-[2-Cyclopropyl-4-oxo-7-(propan-2-yl)-4H,5H-furo[2,3-d]pyridazin-5-yl]-N-{[1,2,4]triazolo[4,3-b]pyridazin-6-yl}acetamide] | 100 to 1000 |
| CC(C)Nc1cc2c(C(C)C)nn(CC(=O)Nc3ncccn3)c(=O)c2s1 [Compound 93, 2-[7-Oxo-4-(propan-2-yl)-2-[(propan-2-yl)amino]-6H,7H-thieno[2,3-d]pyridazin-6-yl]-N-(pyrimidin-2-yl)acetamide] | 100 to 1000 |
| CCNc1cc2c(C(C)C)nn(C3(C(=O)Nc4ncccn4)CC3)c(=O)c2s1 [Compound 110, 1-[2-(Ethylamino)-7-oxo-4-(propan-2-yl)-6H,7H-thieno[2,3-d]pyridazin-6-yl]-N-(pyrimidin-2-yl)cyclopropane-1-carboxamide] | 3000 to 10000 |
| CCc1cc2c(=O)n(CC(=O)Nc3ncc(F)cn3)nc(CC)c2o1 [Compound 55, 2-(2,7-Diethyl-4-oxofuro[2,3-d]pyridazin-5(4H)-yl)-N-(5-fluoropyrimidin-2-yl)acetamide] | 100 to 1000 |
| CC(C)c1nn(CC(=O)Nc2ncc(Cl)cn2)c(=O)c2cn(C(C)C)nc12 [Compound 67, N-(5-Chloropyrimidin-2-yl)-2-(2,7-diisopropyl-4-oxo-2,4-dihydro-5H-pyrazolo[3,4-d]pyridazin-5-yl)acetamide] | 100 to 1000 |
| CC(C)c1nn(CC(=O)Nc2ncco2)c(=O)c2cc(C3CC3)oc12 [Compound 79, 2-(2-Cyclopropyl-7-isopropyl-4-oxofuro[2,3-d]pyridazin-5(4H)-yl)-N-(oxazol-2-yl)acetamide] | 100 to 1000 |
| [2H]C([2H])([2H])Nc1cc2c(C(C)C)nn(CC(=O)Nc3ncccn3)c(=O)c2s1 [Compound 109, 2-{2-Trideuteromethylamino-7-oxo-4-(propan-2-yl)-6H,7H-thieno[2,3-d]pyridazin-6-yl}-N-(pyrimidin-2-yl)acetamide] | ≤ 100 |
| CC(C)c1nn(CC(=O)N[C@H]2C[C@@](C)(O)C2)c(=O)c2cc(C3CC3)oc12 [Compound 81, 2-(2-Cyclopropyl-7-isopropyl-4-oxofuro[2,3-d]pyridazin-5(4H)-yl)-N-((1s,3s)-3-hydroxy-3-methylcyclobutyl)acetamide] | 100 to 1000 |
| CCc1nn(CC(=O)Nc2ncccn2)c(=O)c2cn(CC)nc12 [Compound 21, 2-(2,7-Diethyl-4-oxo-pyrazolo[3,4-d]pyridazin-5-yl)-N-pyrimidin-2-yl-acetamide] | 10000 to 50000 |
| CCc1nn(CC(=O)NC2CC3(COC3)C2)c(=O)c2cn(CC)nc12 [Compound 22, 2-(2,7-Diethyl-4-oxo-pyrazolo[3,4-d]pyridazin-5-yl)-N-(2-oxaspiro[3.3]heptan-6-yl)acetamide] | 10000 to 50000 |
| CCN(C)c1cc2c(C(C)C)nn(CC(=O)Nc3ncccn3)c(=O)c2s1 [Compound 97, 2-{2-[Ethyl(methyl)amino]-7-oxo-4-(propan-2-yl)-6H,7H-thieno[2,3-d]pyridazin-6-yl}-N-(pyrimidin-2-yl)acetamide] | 3000 to 10000 |
